The source of these data is patent US12410163B2, “Compounds as GLP-IR agonists” (Terns Pharmaceuticals, Inc., priority 2022, dated 2025).

Some results are limits rather than exact numbers.

In one data set the target is T1, human GLP-1R receptor (Homo sapiens, UniProt P43220).
T1 construct: expressed in transfected cells
The data set can be described thus: GLP-1R low expression cell assay (cAMP TR-FRET, CHO-K1_hGLP-1Rlow_clone10). Format: cell-based. Particulars: CHO-K1_hGLP-1Rlow_clone10 cells, percent activation relative to control GLP-1 peptide. The method in brief: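 CHO-K1 cells stably expressing low surface levels of human GLP-1R were exposed to 10-point, 3-fold compound dilutions for 30 min at 25 °C, then cAMP was read by TR-FRET (Eu-cAMP/ULight-anti-cAMP, 15 min). EC50 came from Hill fits of percent activation relative to a GLP-1 control agonist, duplicate wells.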
For orientation: In TR-FRET formats the signal depends on donor and acceptor labels being close together.

A short description of data set [1]: Rat pharmacokinetics. The format is in vivo. Set-up: AUC: concentration or dose not given beside the values. The conditions noted are these: male Sprague-Dawley rats, plasma, route not given; for half-life: read-out: Rat T1/2 (converted). As to the method: Intravenous dosing: Compounds were formulated at 0.5 mg/mL in a solution comprising 5% polyethylene glycol 400 and 95% (12% (w/v) sulfobutyl-β-cyclodextrin in water) (v/v). Formulated compounds were sterile filtered through a 0.22 micron filter before dosing. Compounds were administered to male, 7-11-week-old Sprague-Dawley rats by jugular vein cannula infusion over 30 minutes at a dose of 1 mg/kg. […]
Sample collection: Blood collections of about 0.2 mL per time point were performed from jugular vein or other suitable site of each animal, into pre-chilled commercial EDTA-K2 tubes and placed on wet ice until centrifugation. Blood samples were processed for plasma by centrifugation at approximately 4° C., 3,200 g for 10 min. Plasma was collected and transferred into pre-labeled 96 well plate or polypropylene tubes, quick frozen over dry ice and kept at −60° C. or lower until LC-MS/MS analysis.
Data analysis: Plasma concentration versus time data was plotted in graph and analyzed by non-compartmental approaches using the Phoenix WinNonlin 6.3 software program. Related PK parameters were calculated according to dosing route, e.g., CL, Vdss and C0 for intravenous administration, Cmax, Tmax or % F for extravascular administration, and T1/2, AUC(0-t), AUC(0-inf), MRT(0-t), MRT(0-inf) for all routes.

A short description of data set [2]: Rat pharmacokinetics. The format is in vivo. Particulars: male Sprague-Dawley rats, plasma, route not stated in table (IV or oral gavage 10 mL/kg of 0.3 or 0.6 mg/mL).

T1 sequence (P43220 24-463): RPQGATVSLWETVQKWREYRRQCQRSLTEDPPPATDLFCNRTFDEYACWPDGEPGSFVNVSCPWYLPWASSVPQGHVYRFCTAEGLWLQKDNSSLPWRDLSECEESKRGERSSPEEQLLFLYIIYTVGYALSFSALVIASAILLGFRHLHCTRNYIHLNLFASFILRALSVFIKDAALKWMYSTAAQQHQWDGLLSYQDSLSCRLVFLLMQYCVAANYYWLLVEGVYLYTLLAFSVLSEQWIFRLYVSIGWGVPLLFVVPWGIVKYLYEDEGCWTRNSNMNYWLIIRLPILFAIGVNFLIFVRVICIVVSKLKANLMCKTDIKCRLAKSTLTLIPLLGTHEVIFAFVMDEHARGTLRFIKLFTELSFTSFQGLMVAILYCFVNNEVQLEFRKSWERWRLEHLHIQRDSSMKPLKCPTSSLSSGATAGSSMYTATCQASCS

In turn, `N#Cc1ccc(COc2cccc(N3CCN(Cc4nc5ccc(C(=O)O)cc5n4Cc4cncs4)[C@@H]4C[C@@H]43)n2)c(F)c1` (single isomer, unassigned) [Compound 1, 2-((5-(6-((4-cyano-2-fluorobenzyl)oxy)pyridin-2-yl)-2,5-diazabicyclo[4.1.0]heptan-2-yl)methyl)-1-(thiazol-5-ylmethyl)-1H-benzo[d]imidazole-6-carboxylic Acid] showed an EC50 at human GLP-1R receptor of less than 5 nM. Moreover, in “Rat pharmacokinetics [1]”, the AUC came to 71.8 ± 90.3 ng·h/mL and the half-life is 4.58 h. In the data set “Rat pharmacokinetics [2]”, the highest concentration (Cmax) is 34.7 ± 13.7 ng/mL.
The matching figures for `N#Cc1ccc(COc2cccc(N3CCN(Cc4nc5ccc(C(=O)O)cc5n4Cc4cncs4)[C@H]4C[C@H]43)n2)c(F)c1` (single isomer, unassigned) [Compound 2, 2-((5-(6-((4-Cyano-2-fluorobenzyl)oxy)pyridin-2-yl)-2,5-diazabicyclo[4.1.0]heptan-2-yl)methyl)-1-(thiazol-5-ylmethyl)-1H-benzo[d]imidazole-6-carboxylic Acid]: 50 to 100 nM, 63.5 ± 11.1 ng·h/mL, 2.41 h and 44.1 ± 6.5 ng/mL.
On to `N#Cc1ccc(COc2cccc([C@H]3CCN(Cc4nc5ccc(C(=O)O)cc5n4Cc4cncs4)[C@@H]4C[C@H]34)n2)c(F)c1` (single isomer, unassigned) [Compound 4, 2-((5-(6-((4-Cyano-2-fluorobenzyl)oxy)pyridin-2-yl)-2-azabicyclo[4.1.0]heptan-2-yl)methyl)-1-(thiazol-5-ylmethyl)-1H-benzo[d]imidazole-6-carboxylic Acid], for which the EC50 on human GLP-1R receptor is less than 5 nM. Besides, in “Rat pharmacokinetics [1]”, the exposure (AUC) stood at 86.3 ± 27.2 ng·h/mL and the half-life was 0.92 h. In addition, the peak level in “Rat pharmacokinetics [2]” (Cmax) was 70 ± 32 ng/mL.
At human GLP-1R receptor, `N#Cc1ccc(COc2cccc([C@@H]3CCN(Cc4nc5ccc(C(=O)O)cc5n4Cc4cncs4)[C@@H]4C[C@@H]43)n2)c(F)c1` (single isomer, unassigned) [Compound 5, 2-((5-(6-((4-Cyano-2-fluorobenzyl)oxy)pyridin-2-yl)-2-azabicyclo[4.1.0]heptan-2-yl)methyl)-1-(thiazol-5-ylmethyl)-1H-benzo[d]imidazole-6-carboxylic Acid] displayed an EC50 of 5 to 50 nM. Besides, in the data set “Rat pharmacokinetics [1]”, the area under the curve (AUC) worked out at 418 ± 49.6 ng·h/mL and the half-life was 1.31 h. The same compound returned a maximum concentration (Cmax) in the data set “Rat pharmacokinetics [2]” of 282 ± 4.04 ng/mL.
On to `N#Cc1ccc(COc2cccc([C@H]3CCN(Cc4nc5ccc(C(=O)O)cc5n4Cc4cncs4)[C@H]4C[C@@H]34)n2)c(F)c1` (single isomer, unassigned) [Compound 14, 2-((5-(6-((4-Cyano-2-fluorobenzyl)oxy)pyridin-2-yl)-2-azabicyclo[4.1.0]heptan-2-yl)methyl)-1-(thiazol-5-ylmethyl)-1H-benzo[d]imidazole-6-carboxylic Acid], for which the EC50 on human GLP-1R receptor was 5 to 50 nM. Moreover, in the data set “Rat pharmacokinetics [1]”, the exposure (AUC) is 66.8 ± 7.06 ng·h/mL and the half-life was 0.645 h. For the same compound, the concentration in the data set “Rat pharmacokinetics [2]” peaked (Cmax) at 59.3 ± 5.68 ng/mL.
At human GLP-1R receptor, `N#Cc1ccc(COc2cccc([C@@H]3CCN(Cc4nc5ccc(C(=O)O)cc5n4Cc4cncs4)[C@H]4C[C@@H]34)n2)c(F)c1` (single isomer, unassigned) [Compound 15, 2-((5-(6-((4-Cyano-2-fluorobenzyl)oxy)pyridin-2-yl)-2-azabicyclo[4.1.0]heptan-2-yl)methyl)-1-(thiazol-5-ylmethyl)-1H-benzo[d]imidazole-6-carboxylic Acid] showed an EC50 of 5 to 50 nM. Moreover, in “Rat pharmacokinetics [1]”, the AUC amounted to 71.7 ± 16.1 ng·h/mL and the half-life is 0.597 h. Further, in the data set “Rat pharmacokinetics [2]”, the Cmax worked out at 77.4 ± 16.2 ng/mL.
For `N#Cc1ccc(COc2cccc(N3CCN(Cc4nc5ccc(C(=O)O)cc5n4C[C@@H]4CCO4)[C@@H]4C[C@@H]43)n2)c(F)c1` (single isomer, unassigned) [Compound 43] the same measures were less than 5 nM, 118 ± 10 ng·h/mL, 1.19 h and 64.5 ± 17.8 ng/mL.
For `CC1(c2ccc(C#N)cc2F)Oc2cccc(C3CCN(Cc4nc5ccc(C(=O)O)cc5n4Cc4cncs4)CC3)c2O1` (stereo not shown) [Compound 18] the same measures were less than 5 nM, 84.9 ± 32.2 ng·h/mL, 0.89 h and 89.5 ± 23.6 ng/mL.
`N#Cc1ccc(COc2ccnc(N3CCN(Cc4nc5ccc(C(=O)O)cc5n4Cc4cncs4)[C@@H]4C[C@@H]43)n2)c(F)c1` [Compound 20, 2-((5-(4-((4-Cyano-2-fluorobenzyl)oxy)pyrimidin-2-yl)-2,5-diazabicyclo[4.1.0]heptan-2-yl)methyl)-1-(thiazol-5-ylmethyl)-1H-benzo[d]imidazole-6-carboxylic Acid]: the half-maximal effective concentration (EC50) on human GLP-1R receptor is 5 to 50 nM. For the same compound, in the data set “Rat pharmacokinetics [1]”, the AUC worked out at 22.9 ± 30 ng·h/mL and the half-life is 0.578 h. The compound further came in with a Cmax in the data set “Rat pharmacokinetics [2]” of 15.5 ± 7.15 ng/mL.
For the compound `CC1(c2ccc(C#N)cc2F)Oc2cccc(N3CCN(Cc4nc5ccc(C(=O)O)cc5n4CC4(C#N)CC4)C4CC43)c2O1` (stereo not shown) [Compound 40, 2-((5-(2-(4-Cyano-2-fluorophenyl)-2-methylbenzo[d][1,3]dioxol-4-yl)-2,5-diazabicyclo[4.1.0]heptan-2-yl)methyl)-1-((1-cyanocyclopropyl)methyl)-1H-benzo[d]imidazole-6-carboxylic Acid], at human GLP-1R receptor, the EC50 is less than 5 nM. Also, in “Rat pharmacokinetics [1]”, the AUC was determined as 44.2 ± 8.62 ng·h/mL and the half-life is 2.78 h. The compound further registered a Cmax in the data set “Rat pharmacokinetics [2]” of 28.3 ± 6.42 ng/mL.
For the compound `CCn1nncc1Cn1c(CN2CCN(c3cccc(OCc4ccc(C#N)cc4F)n3)[C@H]3C[C@H]32)nc2ccc(C(=O)O)cc21` [Compound 45, 2-((5-(6-((4-Cyano-2-fluorobenzyl)oxy)pyridin-2-yl)-2,5-diazabicyclo[4.1.0]heptan-2-yl)methyl)-1-((1-ethyl-1H-1,2,3-triazol-5-yl)methyl)-1H-benzo[d]imidazole-6-carboxylic Acid], the EC50 on human GLP-1R receptor was less than 5 nM. Further, the area under the curve (AUC) in the data set “Rat pharmacokinetics [1]” came out at 9.48 ng·h/mL. The same compound displayed a peak concentration (Cmax) in the data set “Rat pharmacokinetics [2]” of 9.62 ng/mL.

The EC50 is the concentration giving half of the maximal effect. A word on the AUC: it is concentration integrated over time. As usually defined, the Cmax is the highest concentration seen after dosing.
